Experimental data taken from patent US12384777B2 (Tay Therapeutics Limited, priority 2019, dated 2025).

How the values were obtained:
Conditions in all cases: single point, screened at 30 times Kd; lower numbers indicate stronger hits
BRD2(1) = BRD2(1) (Homo sapiens (Human), UniProt P25440); assay: Bromodomain binding assay, BRD2(1)
Method: (§1) T7 phage strains displaying bromodomains were grown in parallel in 24-well blocks in an E. coli host derived from the BL21 strain. E. coli were grown to log-phase and infected with T7 phage from a frozen stock (multiplicity of infection=0.4) and incubated with shaking at 32° C. until lysis (90-150 min). The lysates were centrifuged (5,000×g) and filtered (0.2 μm) to remove cell debris. Streptavidin-coated magnetic beads were treated with biotinylated small molecule or acetylated peptide ligands for 30 min at RT to generate affinity resins for bromodomain assays. The ligated beads were blocked with excess biotin and washed with blocking buffer (SeaBlock (Pierce), 1% BSA, 0.05% Tween 20, 1 mM DTT) to remove unbound ligand and to reduce non-specific phage binding. Binding reactions were assembled by combining bromodomains, ligated affinity beads, and test compounds in 1× binding buffer (16% SeaBlock, 0.32×PBS, 0.02% BSA, 0.04% Tween 20, 0.004% Sodium azide, 7.9 mM DTT). Test compounds were prepared as 1000× stocks in 100% DMSO and subsequently diluted 1:25 in MEG. The compounds were then diluted directly into the assays such that the final concentrations of DMSO and MEG were 0.1% and 2.4%, respectively. All reactions were performed in polypropylene 384-well plates in a final volume of 0.02 ml. The assay plates were incubated at RT with shaking for 1 hr and the affinity beads were washed with wash buffer (1×PBS, 0.05% Tween 20). The beads were then re-suspended in elution buffer (1×PBS, 0.05% Tween 20, 2 μM non-biotinylated affinity ligand) and incubated at RT with shaking for 30 min. The bromodomain concentration in the eluates was measured by quantitative polymerase chain reaction (qPCR).
(§2) An 11-point 3-fold serial dilution of each test compound was prepared in 100% DMSO at 1000× final test concentration. […] Most dissociation constants were determined using a compound top concentration=10,000 nM. If the initial dissociation constant determined was <0.169 nM (the lowest concentration tested), the measurement was repeated with a serial dilution starting at a lower top concentration. […]

BRD3(1) = BRD3(1) (Homo sapiens (Human), UniProt Q15059); assay: Bromodomain binding assay, BRD3(1)
Method: as §1, §2

BRDT(1) = BRDT(1) (Homo sapiens (Human), UniProt Q58F21); assay: Bromodomain binding assay, BRDT(1)
Method: as §1, §2

BRD2(2) = BRD2(2) (Homo sapiens (Human), UniProt P25440); assay: Bromodomain binding assay, BRD2(2)
Method: as §1, §2

BRD3(2) = BRD3(2) (Homo sapiens (Human), UniProt Q15059); assay: Bromodomain binding assay, BRD3(2)
Method: as §1, §2

BRDT(2) = BRDT(2) (Homo sapiens (Human), UniProt Q58F21); assay: Bromodomain binding assay, BRDT(2)
Method: as §1, §2

Chain of BRD3(2) (Q15059 306-415): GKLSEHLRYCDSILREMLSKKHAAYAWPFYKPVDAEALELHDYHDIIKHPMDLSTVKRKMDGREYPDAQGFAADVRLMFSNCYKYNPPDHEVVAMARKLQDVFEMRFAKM
Chain of BRD3(1) (Q15059 34-140): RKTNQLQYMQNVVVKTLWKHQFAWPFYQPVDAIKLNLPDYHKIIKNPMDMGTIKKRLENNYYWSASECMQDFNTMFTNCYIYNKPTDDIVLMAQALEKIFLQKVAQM
Chain of BRD2(2) (P25440 344-453): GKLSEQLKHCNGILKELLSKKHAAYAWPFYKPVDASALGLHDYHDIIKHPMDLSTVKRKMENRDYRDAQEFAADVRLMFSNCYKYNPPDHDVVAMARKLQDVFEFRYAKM
Chain of BRD2(1) (P25440 74-180): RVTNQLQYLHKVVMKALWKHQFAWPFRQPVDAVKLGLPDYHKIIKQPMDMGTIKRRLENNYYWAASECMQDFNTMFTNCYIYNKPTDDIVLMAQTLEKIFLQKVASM

BRD2(1) % Ctrl (BRD2(1)): 0 % Ctrl
BRD3(1) % Ctrl (BRD3(1)): 0 % Ctrl
BRDT(1) % Ctrl (BRDT(1)): 0 % Ctrl
BRD2(2) % Ctrl (BRD2(2)): 0.6 % Ctrl
BRD3(2) % Ctrl (BRD3(2)): 0.05 % Ctrl
BRDT(2) % Ctrl (BRDT(2)): 3.8 % Ctrl
SMILES: Cn1cc(-c2cccc(O)c2Oc2ccccc2)c2cc[nH]c2c1=O [Example 1, 4-(3-hydroxy-2-phenoxyphenyl)-6-methyl-1,6-dihydro-7H-pyrrolo[2,3-c]pyridin-7-one]
